One test concerns the target T1, IGF-1R (Homo sapiens (Human), UniProt P08069). The test can be described thus: Example B-1: IGF-1R Assay (PC3 cells, IGF1 stimulation, AlphaLISA). Format: cell-based. The note with it: 200 ng/mL IGF1 stimulation, read-out: Biological Activity against IGF-1R IC50. The procedure, abridged: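 PC3 cells were serum-starved 2 h, treated with serially diluted compounds for 2 h, then stimulated with IGF1 (200 ng/mL final) for 30 min. Lysates were read by AlphaLISA; % inhibition was calculated relative to vehicle and EC80 controls, with IC50 values binned into ranges.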
Background: In Alpha technology, singlet oxygen from a donor bead excites a nearby acceptor bead.
Target sequence in this assay (P08069 31-1367): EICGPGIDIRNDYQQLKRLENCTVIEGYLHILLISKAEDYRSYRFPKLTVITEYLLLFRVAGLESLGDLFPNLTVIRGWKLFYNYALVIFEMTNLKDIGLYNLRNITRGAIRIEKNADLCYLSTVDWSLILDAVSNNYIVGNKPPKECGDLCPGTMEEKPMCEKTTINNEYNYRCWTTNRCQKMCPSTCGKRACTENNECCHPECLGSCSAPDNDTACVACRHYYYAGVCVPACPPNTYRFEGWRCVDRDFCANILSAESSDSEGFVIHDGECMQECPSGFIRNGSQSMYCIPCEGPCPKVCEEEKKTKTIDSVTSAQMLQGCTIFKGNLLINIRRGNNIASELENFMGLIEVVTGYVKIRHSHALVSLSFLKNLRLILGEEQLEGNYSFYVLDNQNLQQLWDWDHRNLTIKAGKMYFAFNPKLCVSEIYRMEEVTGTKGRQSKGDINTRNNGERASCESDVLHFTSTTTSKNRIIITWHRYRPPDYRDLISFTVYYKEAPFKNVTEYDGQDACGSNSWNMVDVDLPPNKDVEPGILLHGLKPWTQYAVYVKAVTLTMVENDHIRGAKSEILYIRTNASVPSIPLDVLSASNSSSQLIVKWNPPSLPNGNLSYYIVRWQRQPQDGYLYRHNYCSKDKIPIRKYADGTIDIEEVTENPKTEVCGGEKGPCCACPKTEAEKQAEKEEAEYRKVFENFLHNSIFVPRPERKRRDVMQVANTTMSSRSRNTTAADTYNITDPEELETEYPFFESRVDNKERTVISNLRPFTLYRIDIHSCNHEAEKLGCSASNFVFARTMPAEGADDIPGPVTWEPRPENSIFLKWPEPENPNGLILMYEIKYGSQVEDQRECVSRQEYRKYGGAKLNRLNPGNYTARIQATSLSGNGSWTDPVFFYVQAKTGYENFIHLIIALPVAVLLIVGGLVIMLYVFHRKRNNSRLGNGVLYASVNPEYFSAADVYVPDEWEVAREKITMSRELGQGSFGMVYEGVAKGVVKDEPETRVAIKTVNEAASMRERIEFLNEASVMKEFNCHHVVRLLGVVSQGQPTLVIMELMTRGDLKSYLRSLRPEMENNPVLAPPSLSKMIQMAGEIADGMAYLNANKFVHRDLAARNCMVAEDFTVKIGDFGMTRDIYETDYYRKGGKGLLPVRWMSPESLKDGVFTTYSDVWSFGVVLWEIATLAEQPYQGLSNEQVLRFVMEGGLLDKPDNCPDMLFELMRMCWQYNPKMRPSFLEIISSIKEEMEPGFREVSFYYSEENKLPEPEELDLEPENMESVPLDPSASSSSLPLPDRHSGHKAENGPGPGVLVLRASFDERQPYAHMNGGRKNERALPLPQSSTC
For the compound `COc1cc(Nc2nccc(Nc3cnc4ccccc4c3)n2)ccc1N1CCC(N2CCOCC2)CC1` [Compound 3, 2-[3-methoxy-4-(4-morpholino-1-piperidyl)phenylamino]-4-(3-quinolylamino)pyrimidine], the IC50 (commonly the concentration at which inhibition is half-maximal) was ≤ 500 nM. As for `COc1cc(Nc2nccc(Nc3cnc4ccc(Cl)nc4c3)n2)ccc1O[C@H]1C[C@@H](N(C)C)C1` [Compound 10, 4-(6-chloro-1,5-diaza-3-naphthylamino)-2-{3-methoxy-4-[(1s,3s)-3-(dimethylamino)cyclobutoxy]phenylamino}pyrimidine], the IC50 is ≤ 500 nM. On the same count and under the same terms, in the case of `COc1cc(Nc2nccc(Nc3cnc4ccccc4c3)n2)ccc1O[C@H]1CC[C@H](N(C)C)CC1` [Compound 17, 2-{3-methoxy-4-[(1r,4r)-4-(dimethylamino)cyclohexyloxy]phenylamino}-4-(3-quinolylamino)pyrimidine] it was ≤ 500 nM.

As for `COc1nc(N2CCN(C)CC2)ccc1Nc1nccc(Nc2cnc3cc(F)c(F)cc3c2)n1` [Compound 472, 4-(6,7-difluoro-3-quinolylamino)-2-[2-methoxy-6-(4-methyl-1-piperazinyl)-3-pyridylamino]pyrimidine], the half-inhibitory concentration (IC50) was ≤ 500 nM. Take `COc1cc(N2CCN(C)CC2)ncc1Nc1nccc(Nc2cnc3cc(F)c(F)cc3c2)n1` [Compound 473, 4-(6,7-difluoro-3-quinolylamino)-2-[4-methoxy-6-(4-methy1-1-piperazinyl)-3-pyridylamino]pyrimidine]: the IC50 was ≤ 500 nM.

On to `COc1cc(Nc2nccc(Nc3cnc4cc(F)c(F)cc4c3)n2)cnc1N1CCN(CC(F)(F)F)CC1` [Compound 474, 4-(6,7-difluoro-3-quinolylamino)-2-{5-methoxy-6-[4-(2,2,2-trifluoroethyl)-1-piperazinyl]-3-pyridylamino}pyrimidine], for which the IC50 is 500 to 2000 nM. For `COc1cc(Nc2nccc(Nc3cnc4cc(F)c(F)cc4c3)n2)cnc1N1CCN(C)C(C(F)(F)F)C1` (stereo not shown) [Compound 475, 4-(6,7-difluoro-3-quinolylamino)-2-{5-methoxy-6-[4-methyl-3-(trifluoromethyl)-1-piperazinyl]-3-pyridylamino}pyrimidine], the IC50 is 500 to 2000 nM.

For `COc1cc(Nc2nccc(Nc3cnc4ccc(Cl)cc4c3)n2)cnc1N1CCC(C)(O)CC1` [Compound 476, 1-{5-[4-(6-chloro-3-quinolylamino)-2-pyrimidinylamino]-3-methoxy-2-pyridyl}-4-methyl-4-piperidinol], the half-inhibitory concentration (IC50) is ≤ 500 nM. Regarding `COc1cc(Nc2nccc(Nc3cnc4ccc(Cl)cc4c3)n2)cnc1N1CCN(C)CC1` [Compound 477, 4-(6-chloro-3-quinolylamino)-2-[5-methoxy-6-(4-methyl-1-piperazinyl)-3-pyridylamino]pyrimidine], the IC50 was ≤ 500 nM. Same read-out and setting: in the case of `COc1cc(Nc2nccc(Nc3cnc4cc(F)c(F)cc4c3)n2)cnc1N1CCNCC1` [Compound 478, 4-(6,7-difluoro-3-quinolylamino)-2-[5-methoxy-6-(1-piperazinyl)-3-pyridylamino]pyrimidine] it was ≤ 500 nM; in that of `COc1cc(Nc2nccc(Nc3cnc4ccc(Cl)cc4c3)n2)cnc1N1CCN(CC#N)CC1` [Compound 479, (4-{5-[4-(6-chloro-3-quinolylamino)-2-pyrimidinylamino]-3-methoxy-2-pyridyl}-1-piperazinyl)acetonitrile], ≤ 500 nM. Still for that read-out and setting: in the case of `COc1cc(Nc2nccc(Nc3cnc4ccc(Cl)cc4c3)n2)cnc1N1CCN(C)C(C)(C)C1` [Compound 480, 4-(6-chloro-3-quinolylamino)-2-[6-(3,3-dimethyl-4-methyl-1-piperazinyl)-5-methoxy-3-pyridylamino] pyrimidine] it was ≤ 500 nM; in that of `COc1cc(Nc2nccc(Nc3cnc4ccc(Cl)cc4c3)n2)cnc1N1CCN(C2COC2)CC1` [Compound 481, 4-(6-chloro-3-quinolylamino)-2-{5-methoxy-6-[4-(3-oxetanyl)-1-piperazinyl]-3-pyridylamino}pyrimidine], ≤ 500 nM.

With `COc1cc(Nc2nccc(Nc3cnc4cc(F)c(F)cc4c3)n2)cnc1N1CCNC(C(F)F)C1` (stereo not shown) [Compound 482, 2-{6-[3-(difluoromethyl)-1-piperazinyl]-5-methoxy-3-pyridylamino}-4-(6,7-difluoro-3-quinolylamino)pyrimidine], the half-maximal inhibitory concentration (IC50) is ≤ 500 nM. Take `COc1cc(Nc2nccc(Nc3cnc4cc(F)c(F)cc4c3)n2)cnc1N1CCN(C)C(C)(C)C1` [Compound 484, 4-(6,7-difluoro-3-quinolylamino)-2-[6-(3,3-dimethyl-4-methyl-1-piperazinyl)-5-methoxy-3-pyridylamino]pyrimidine]: the IC50 is ≤ 500 nM. As to `COc1nc(N2CCN(C)CC2)ccc1Nc1nccc(Nc2cnc3ccc(Cl)cc3c2)n1` [Compound 485, 4-(6-chloro-3-quinolylamino)-2-[2-methoxy-6-(4-methyl-1-piperazinyl)-3-pyridylamino]pyrimidine], the IC50 is ≤ 500 nM. In the case of `COc1cc(N2CCN(C)CC2)ncc1Nc1nccc(Nc2cnc3ccc(Cl)cc3c2)n1` [Compound 486, 4-(6-chloro-3-quinolylamino)-2-[4-methoxy-6-(4-methyl-1-piperazinyl)-3-pyridylamino]pyrimidine], the IC50 is ≤ 500 nM. As to `COc1nc(N2CCC(C)(O)CC2)ccc1Nc1nccc(Nc2cnc3cc(F)c(F)cc3c2)n1` [Compound 487, 1-{5-[4-(6,7-difluoro-3-quinolylamino)-2-pyrimidinylamino]-6-methoxy-2-pyridyl}-4-methyl-4-piperidinol], the IC50 was ≤ 500 nM.

`COc1cc(N2CCC(C)(O)CC2)ncc1Nc1nccc(Nc2cnc3cc(F)c(F)cc3c2)n1` [Compound 488, 1-{5-[4-(6,7-difluoro-3-quinolylamino)-2-pyrimidinylamino]-4-methoxy-2-pyridyl}-4-methyl-4-piperidinol]: the IC50 is ≤ 500 nM. For `COc1nc(N2CCC(C)(O)CC2)ccc1Nc1nccc(Nc2cnc3ccc(Cl)cc3c2)n1` [Compound 489, 1-{5-[4-(6-chloro-3-quinolylamino)-2-pyrimidinylamino]-6-methoxy-2-pyridyl}-4-methyl-4-piperidinol], the IC50 is ≤ 500 nM.

Regarding `COc1cc(N2CCC(C)(O)CC2)ncc1Nc1nccc(Nc2cnc3ccc(Cl)cc3c2)n1` [Compound 490, 1-{5-[4-(6-chloro-3-quinolylamino)-2-pyrimidinylamino]-4-methoxy-2-pyridyl}-4-methyl-4-piperidinol], the IC50 is ≤ 500 nM. As to `COc1cc(Nc2ncc(F)c(Nc3cc4ccccc4nc3C(N)=O)n2)cnc1N1CCC(C)(O)CC1` [Compound 491, 3-{5-fluoro-2-[6-(4-hydroxy-4-methyl-1-piperidyl)-5-methoxy-3-pyridylamino]-4-pyrimidinylamino}-2-quinolinecarboxamide], the IC50 is ≤ 500 nM. With `COc1cc(N2CCC(C)(O)CC2)ncc1Nc1ncc(F)c(Nc2cc3ccccc3nc2C(N)=O)n1` [Compound 492, 3-{5-fluoro-2-[6-(4-hydroxy-4-methyl-1-piperidyl)-4-methoxy-3-pyridylamino]-4-pyrimidinylamino}-2-quinolinecarboxamide], the IC50 was ≤ 500 nM.

On to `COc1cc(N2CCN(CC#N)CC2)ncc1Nc1ncc(F)c(Nc2cc3ccccc3nc2C(N)=O)n1` [Compound 493, 3-(2-{6-[4-(cyanomethyl)-1-piperazinyl]-4-methoxy-3-pyridylamino}-5-fluoro-4-pyrimidinylamino)-2-quinolinecarboxamide], for which the IC50 was ≤ 500 nM. On to `COc1cc(N2CCN(C3COC3)CC2)ncc1Nc1nccc(Nc2cnc3ccc(Cl)cc3c2)n1` [Compound 494, 4-(6-chloro-3-quinolylamino)-2-{4-methoxy-6-[4-(3-oxetanyl)-1-piperazinyl]-3-pyridylamino}pyrimidine], for which the half-maximal inhibitory concentration (IC50) is ≤ 500 nM. With `COc1cc(N2CCN(C3COC3)CC2)ncc1Nc1ncc(F)c(Nc2cc3ccccc3nc2C(N)=O)n1` [Compound 495, 3-(5-fluoro-2-{4-methoxy-6-[4-(3-oxetanyl)-1-piperazinyl]-3-pyridylamino}-4-pyrimidinylamino)-2-quinolinecarboxamide], the IC50 is ≤ 500 nM. Regarding `O=S1(=O)CCN(CCCOc2ccc(Nc3nccc(Nc4cnc5c(c4)OCCO5)n3)cc2)CC1` [Compound 506, 4-(3-{p-[4-(2,3-dihydro-1,4-dioxa-5-aza-7-naphthylamino)-2-pyrimidinylamino]phenoxy}propyl)-1λ^6,4-thiazinane-1,1-dione], the IC50 was ≤ 500 nM.

Another test has as its target T1, IGF-1R. The test can be described thus: Example B-2: IGF-1R Assay (PathHunter cell lines, EC80 agonist challenge). Format: cell-based. The note with it: read-out: IC50 (Biological Activity against IGF-1R). As for the experimental part:
PathHunter cell lines were expanded from freezer stocks according to standard procedures. Cells were seeded in a total volume of 20 μL into white walled, 384-well microplates and incubated for the appropriate time prior to testing.
Cells are pre-incubated with compound followed by EC80 agonist challenge as follows: • 1. Intermediate dilution of sample stocks was performed to generate 5× sample in assay buffer. • 2. 5 μL of 5× sample was added to cells and incubated at 37° C. for 60 minutes. Vehicle concentration was 1%. • 3. 5 μL of 6×EC80 agonist in assay buffer was added to the cells and incubated at room temperature for 3 hours.
Assay signal was generated through a single addition of 12.5 or 15 μL (50% v/v) of PathHunter Detection reagent cocktail for agonist and antagonist assays respectively, followed by a one hour incubation at room temperature. Microplates were read following signal generation with a PerkinElmer Envision™ instrument for chemilumine-scent signal detection.
Compound activity was analyzed using CBIS data analysis suite (ChemInnovation, CA). Percentage inhibition was calculated using the following formula: % Inhibition=100%×(1−(mean RLU of test sample−mean RLU of vehicle control)/(mean RLU of EC80 control−mean RLU of vehicle control)). The activity for representative examples of the invention is shown in the following table, wherein A: IC50≤500 nM; B: 500 nM<IC50≤2 μM; C: […]≤10 μM; D: IC50>[…].
Target sequence in this assay (P08069 31-1367, species assumed): as the sequence (P08069 31-1367) above
Consider `COc1cc(Nc2nccc(Nc3cnc4ccccc4c3)n2)ccc1N1CCC(N2CCOCC2)CC1` [Compound 3, 2-[3-methoxy-4-(4-morpholino-1-piperidyl)phenylamino]-4-(3-quinolylamino)pyrimidine], for which the concentration for half-maximal inhibition (IC50) is ≤ 500 nM. For `COc1cc(Nc2nccc(Nc3cnc4ccc(Cl)nc4c3)n2)ccc1O[C@H]1C[C@@H](N(C)C)C1` [Compound 10, 4-(6-chloro-1,5-diaza-3-naphthylamino)-2-{3-methoxy-4-[(1s,3s)-3-(dimethylamino)cyclobutoxy]phenylamino}pyrimidine], the IC50 was 500 to 2000 nM.

`COc1cc(Nc2nccc(Nc3cnc4ccccc4c3)n2)ccc1O[C@H]1CC[C@H](N(C)C)CC1` [Compound 17, 2-{3-methoxy-4-[(1r,4r)-4-(dimethylamino)cyclohexyloxy]phenylamino}-4-(3-quinolylamino)pyrimidine]: the IC50 is ≤ 500 nM.

Turning to `COc1cc(Nc2nccc(Nc3cc4ccccc4nc3C(N)=O)n2)ccc1O[C@H]1C[C@@H](N(C)C)C1` [Compound 297, 3-(2-{3-methoxy-4-[(1s,3s)-3-(dimethylamino)cyclobutoxy]phenylamino}-4-pyrimidinylamino)-2-quinolinecarboxamide], the IC50 lay in the range of 500 to 2000 nM.

For the origin of these results see patent US20250171431A1, “HETEROCYCLIC INHIBITORS OF IGF-1R FOR TREATMENT OF DISEASE” (HORIZON THERAPEUTICS IRELAND DAC, priority 2023, published 2025).
